Measurements: patent US20130245081A1, “Compositions and Methods for Treating Amyotrophic Lateral Sclerosis” (priority 2009, published 2013)

Test: clinical
Conditions: for AUC(0-t) / AUC(0-inf) / Cmax / Tmax / Vd/F / half-life / CL renal: both, human, oral; for AUC(0-t) / AUC(0-inf) / Cmax / Tmax / Vd/F / half-life: plasma; for AUC(0-t): AUC0-t; for AUC(0-inf): AUCinf; for Vd/F: Vz/F; for CL renal: urine and plasma, CLr
Description: A total of 54 subjects (30 subjects in Study CL001 and 24 subjects in Study CL002) were enrolled. Healthy, non-smoking, male and female subjects 30 to 60 years of age, inclusive, with normal or clinically acceptable physical examination and electrocardiogram (ECG) findings, systolic (90 to 140 mmHg) and diastolic (50 to 90 mmHg) blood pressure, and resting heart rate (50 to 100 bpm) who were willing to provide signed, written informed consent were eligible for enrollment. Female volunteers had to be of non-childbearing potential with negative pregnancy test results at screening and clinic check-in. Subjects with any history of neurodegenerative illnesses were excluded. The use of over-the-counter medications within 7 days prior to enrollment or prescription medications within 12 weeks prior to enrollment was prohibited.
In the first study, subjects were enrolled in 3 successive double-blind, placebo-controlled panels of 8 subjects (n=6 active, n=2 placebo per panel).
Matching placebo capsules contained equivalent weights of microcrystalline cellulose. Capsules were administered orally with water. […] Subjects in the fasted cohorts were required to fast overnight for a minimum of 10 hours before dose administration. Subjects in the food cohort were required to fast overnight for a minimum of 10 hours before dose administration, with exception of the high fat/high calorie meal that was administered 30 minutes prior to drug administration. […] All available safety data were reviewed under blinded conditions to monitor for serious safety or tolerability events prior to proceeding with dose escalations.
Blood samples were collected into a 10 mL dipotassium ethylenediaminetetraacetic acid (K2-EDTA) Vacutainer® via an indwelling peripheral intravenous cannula or by direct venipuncture. Within 15 minutes of collection, the samples were centrifuged at 3000 rpm for 10 minutes at 4° C. After centrifugation, the plasma was divided into 2 aliquots of at least 1.5 mL each, placed into polypropylene containers, frozen, and stored at −20° C. until they were shipped for analysis.
Urine collected in each interval was well mixed, the pH was recorded, the total volume (or the weight and specific gravity) was recorded, and 2 aliquots of 20 mL each were collected into polypropylene containers and stored at −20° C. until they were shipped for analysis. All plasma and urine sample were shipped frozen on dry ice in 2 separate shipments per group (1 set of aliquots per shipment) to Eurofins AvTech Laboratories Inc. (Kalamazoo, Mich.) for bioanalytical analysis.
Plasma and urine concentrations were measured using validated liquid chromatography/mass spectrometry/mass spectrometry (LC/MS/MS) methods. […] The analytical procedure for analysis of plasma samples used a 100 μL aliquot of K2EDTA human plasma. The plasma sample was spiked with 20 μL of working internal standard solution and 20 μL of type 1 water for subject samples and QCs and 20 μL of the appropriate intermediate standard solution for standards. One hundred microliters ([…]) of 50% ammonium hydroxide solution was added to the sample followed by vortex mixing. One milliliter (1 mL) of tertbutyl methyl ether was then added and the sample was vortexed to extract the analyte and internal standard into the organic layer, followed by separation using flash freezing. The organic layer was decanted, evaporated to dryness, and the sample was reconstituted with 0.5 mL of reconstitution solution (0.1% ammonium hydroxide in 50:50 methanol; type 1 water (v/v/v)). A 10 μL aliquot of this reconstituted sample was injected into an LC/MS/MS system for analysis. […] The analytical procedure for analysis of urine samples was essentially similar to the plasma procedure.

## CCCN[C@@H]1CCc2nc(N)sc2C1 [dexpramipexole, (6R)-2-amino-4,5,6,7-tetrahydro-6-(propylamino)benzothiazole]
Both Phase 1 studies
  eliminated in urine as unchanged parent drug: 84-90 % of dose
50 mg, single 50 mg, fasted
  AUC(0-t): 989 ± 295 ng·h/mL
  AUC(0-inf): 1250 ± 347 ng·h/mL
  Cmax: 125 ± 22 ng/mL
  Vd/F: 294 ± 46.2 L
  CL renal: 628 ± 149 mL/min
50 mg, Tmax (median), single 50 mg, fasted
  Tmax: 2.04 h
150 mg, single 150 mg, fasted
  AUC(0-t): 3360 ± 780 ng·h/mL
  AUC(0-inf): 3780 ± 1010 ng·h/mL
  Cmax: 360 ± 60.4 ng/mL
  Vd/F: 311 ± 68.4 L
  CL renal: 385 mL/min
150 mg, single 150 mg, fed
  AUC(0-t): 3080 ± 934 ng·h/mL
  AUC(0-inf): 3380 ± 957 ng·h/mL
  Cmax: 315 ± 61.6 ng/mL
  Vd/F: 308 ± 55.9 L
  CL renal: 559 ± 140 mL/min
150 mg, Tmax (median), single 150 mg, fasted
  Tmax: 2.04 h
150 mg, Tmax (median), single 150 mg, fed
  Tmax: 2.58 h
150 mg, t1/2, single 150 mg, fed
  half-life: 6.33 ± 1.49 h
300 mg, single 300 mg, fasted
  AUC(0-t): 8340 ± 3200 ng·h/mL
  AUC(0-inf): 8620 ± 3260 ng·h/mL
  Cmax: 781 ± 158 ng/mL
  Vd/F: 258 ± 73.5 L
  CL renal: 441 ± 159 mL/min
300 mg, Tmax (median), single 300 mg, fasted
  Tmax: 1.98 h
300 mg, elimination t1/2, single 50, 150, 300 mg, fasted
  half-life: 6.4 to 6.96 h
Tmax, range over both Phase 1 studies, single and multiple doses
  Tmax: 1.75 to 2.58 h
t1/2, range over both Phase 1 studies, fasted conditions
  half-life: 6.4 to 8.05 h
Oral administration
  time of maximum concentrations after dosing: 2 h
Single 50 mg, fasted
  CL/F: 527 ± 135 mL/min
  Fe: 94.7 ± 13.9 % dose
  Ue: 35.3 ± 5.19 mg
  λz: 0.1064 ± 0.0171 h⁻¹
Single 150 mg, fasted
  CL/F: 524 ± 146 mL/min
  Fe: 66.9 ± 44.8 % dose
  Ue: 74.8 ± 50.17 mg
  λz: 0.1001 ± 0.0087 h⁻¹
Single 150 mg, fed
  CL/F: 581 ± 127 mL/min
  Fe: 86.6 ± 4.21 % dose
  Ue: 96.9 ± 4.71 mg
  λz: 0.1144 ± 0.0259 h⁻¹
Single 300 mg, fasted
  CL/F: 492 ± 194 mL/min
  Fe: 88.3 ± 12.5 % dose
  Ue: 198 ± 28.0 mg
  λz: 0.1151 ± 0.0309 h⁻¹
Single doses
  dose recovered as unchanged parent drug in the urine: Approximately 90%
